From publication PMC11053944, “FRET Assays for the Identification of C. albicans HSP90-Sba1 and Human HSP90α-p23 Binding Inhibitors” (Pharmaceuticals, 2024)
“Also recorded” adds a separate entry of the source.

What was measured:
[1] = biological target: T1, C. albicans HSP90–Sba1 binding (Candida albicans, UniProt P46598); test: FRET inhibitor screening assay, C. albicans HSP90-Sba1 binding; conditions: 10 or 100 µM (Sba1 20 µM), triplicates, 3 mM ATP, 1% DMSO, 15 min 30 °C
T1 construct: made in house; host or cells: E. coli BL21(DE3)
T1 sequence (P46598 whole entry): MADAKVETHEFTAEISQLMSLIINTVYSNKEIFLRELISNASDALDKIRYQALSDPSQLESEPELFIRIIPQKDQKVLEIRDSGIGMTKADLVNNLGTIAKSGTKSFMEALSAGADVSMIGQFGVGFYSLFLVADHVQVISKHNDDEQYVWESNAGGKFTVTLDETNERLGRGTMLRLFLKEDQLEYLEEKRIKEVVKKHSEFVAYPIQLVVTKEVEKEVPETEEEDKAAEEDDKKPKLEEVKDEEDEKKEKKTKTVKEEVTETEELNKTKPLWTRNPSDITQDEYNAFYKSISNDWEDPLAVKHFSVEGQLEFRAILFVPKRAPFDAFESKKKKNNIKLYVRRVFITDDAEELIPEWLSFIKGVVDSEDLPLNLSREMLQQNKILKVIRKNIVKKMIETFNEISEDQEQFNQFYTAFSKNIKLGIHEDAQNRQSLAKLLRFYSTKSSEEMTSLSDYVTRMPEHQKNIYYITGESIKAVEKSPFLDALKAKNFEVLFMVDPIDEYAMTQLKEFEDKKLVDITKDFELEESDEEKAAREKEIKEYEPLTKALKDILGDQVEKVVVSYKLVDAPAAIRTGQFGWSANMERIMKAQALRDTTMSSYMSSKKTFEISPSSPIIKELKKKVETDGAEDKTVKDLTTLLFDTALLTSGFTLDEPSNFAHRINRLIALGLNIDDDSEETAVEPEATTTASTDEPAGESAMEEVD
Source text: We used the Z′ factor (Z′) to optimize the FRET assays for screening purposes. Z′ represents a simple statistical parameter for the quality assessment and optimization of HTS assays and screening assays in general. It is a measure that determines the degree of signal separation between binding and non-binding data sets. Calculation of the Z′ factor is based on the standard deviation of the individual data sets as well as their general signal separation. Values ≥ 0.5 can be classified as excellent for screening purposes. […] When the fluorescent fusion proteins of HSP90 and co-chaperones bind to each other, FRET occurs between donor and acceptor fluorophores, and the sensitized emission (EmFRET) signal increases. Consequently, the fluorescence intensity of the donor decreases (FLDD). […] To obtain an informative Z′ value, we calculated it based on at least three independent experiments amounting to 144 samples for both binding and non-binding control data sets (Figure 4B,E). […] We defined the ‘hit threshold’ as a decrease in readout signal of more than 3 standard deviations (SDs) from the mean signal of the binding control. This constitutes a common threshold for hit identification in HTS campaigns.
(§1) FRET experiments were carried out in 384-well microtiter plates (Art. No. 3766 Corning, NY, USA, or Art. No. 781906, Greiner Bio-One GmbH, Frickenhausen, Germany) containing a final volume of 20 µL and measured with a microplate reader Infinite M200Pro (Tecan, Männedorf, Switzerland). The fluorescence was measured in three channels: excitation (ex.): 488 nm/emission (em.): 525 nm (mNeonGreen fluorescence), ex.: 561 nm/em.: 610 nm (mScarlet-I fluorescence) and the FRET channel ex.: 488 nm/em.: 610 nm. The excitation and emission bandwidths were set to 9 and 20 nm, respectively. Experiments for the determination of the equilibrium dissociation constants were performed with a filter-based microplate reader Infinite F200Pro (Tecan, Männedorf, Switzerland). The fluorescence was measured in three channels using the following filters: ex.: 485 ± 20 nm/em.: 535 ± 20 nm (mNeonGreen channel), ex.: 535 ± 20 nm/em.: 612 ± 10 nm (mScarlet-I channel) and the FRET channel ex.: 485 ± 20 nm/em.: 612 ± 10 nm. FRET emission (EmFRET) was calculated according to Song et al. 2011 [81]:(1) EmFRET=FLDA−x×FLDD−(y×FLAA) where FLDA is the fluorescence signal of the FRET channel and FLDD and FLAA are fluorescence signals from the mNeonGreen and mScarlet-I channels, respectively. The correction factors x and y were calculated as follows:(2) x=FLDA/FLDD for samples containing only the donor fluorophore or fluorescent fusion proteins with mNeonGreen and (3) y=FLDA/FLAA for samples containing only the acceptor fluorophore or fluorescent fusion proteins with mScarlet-I in the same concentration as samples containing both the donor and acceptor.
For screening for the identification of ATP-competitive C. albicans HSP90 and HSP90-Sba1 binding inhibitors, 10 µL of HSP90-mNeonGreen ([…]) in HEPES buffer (40 mM HEPES/KOH pH 7.5, 20 mM KCl) was mixed with 10 µL of 200 µM compound solution in 2x reaction buffer (40 mM HEPES/KOH pH 7.5, 20 mM KCl, 10 mM MgCl2, 40 mM Na2MoO4, Triton-X 100 0.2%), 6 mM ATP, 2% DMSO, resulting […] Samples for binding control (3 mM ATP, final concentration) and non-binding control (no ATP) were prepared in the same manner without compounds. The samples were incubated for 15 min at 30 °C prior to measurement.

human HSP90α–p23 binding = biological target: T2, human HSP90α–p23 binding (Homo sapiens, UniProt P07900); test: FRET inhibitor screening assay, human HSP90α-p23 binding; conditions: 10 or 100 µM, triplicates, 3 mM ATP, 1% DMSO, 15 min 37 °C
T2 construct: made in house; host or cells: E. coli Rosetta2(DE3) pLysS
Source text: We used the Z′ factor (Z′) to optimize the FRET assays for screening purposes. Z′ represents a simple statistical parameter for the quality assessment and optimization of HTS assays and screening assays in general. It is a measure that determines the degree of signal separation between binding and non-binding data sets. Calculation of the Z′ factor is based on the standard deviation of the individual data sets as well as their general signal separation. Values ≥ 0.5 can be classified as excellent for screening purposes. […] When the fluorescent fusion proteins of HSP90 and co-chaperones bind to each other, FRET occurs between donor and acceptor fluorophores, and the sensitized emission (EmFRET) signal increases. Consequently, the fluorescence intensity of the donor decreases (FLDD). […] We defined the ‘hit threshold’ as a decrease in readout signal of more than 3 standard deviations (SDs) from the mean signal of the binding control. This constitutes a common threshold for hit identification in HTS campaigns.
The excitation and emission bandwidths were set to 9 and 20 nm, respectively. Experiments for the determination of the equilibrium dissociation constants were performed with a filter-based microplate reader Infinite F200Pro (Tecan, Männedorf, Switzerland). […] The correction factors x and y were calculated as follows:(2) x=FLDA/FLDD for samples containing only the donor fluorophore or fluorescent fusion proteins with mNeonGreen and (3) y=FLDA/FLAA for samples containing only the acceptor fluorophore or fluorescent fusion proteins with mScarlet-I in the same concentration as samples containing both the donor and acceptor.
For screening for the identification of ATP-competitive C. albicans HSP90 and HSP90-Sba1 binding inhibitors, 10 µL of HSP90-mNeonGreen (2 µM) and Sba1-mScarlet-I (4 µM) in HEPES buffer (40 mM HEPES/KOH pH 7.5, 20 mM KCl) was mixed with 10 µL of 200 µM compound solution in 2x reaction buffer (40 mM HEPES/KOH pH 7.5, 20 mM KCl, 10 mM MgCl2, 40 mM Na2MoO4, Triton-X 100 0.2%), 6 mM ATP, 2% DMSO, resulting ultimately in constant HSP90-mNeonGreen concentrations of 1 µM and Sba1-mScarlet-I 2 µM in reaction buffer. Samples for binding control (3 mM ATP, final concentration) and non-binding control (no ATP) were prepared in the same manner without compounds. The samples were incubated for 15 min at 30 °C prior to measurement. The assay for the human HSP90α–p23 binding inhibitor identification was performed analogously, with the exception that samples were incubated for 15 min at 37 °C prior to measurement. Since binding samples show both a high EmFRET as well as a reduction in donor emission (FLDD), we calculated the quotient (EmFRET/FLDD) to derive an improved signal separation and robustness. The nucleoside-mimetics library was obtained from Enamine (catalog No. NML-320-X-20, Enamine Ltd., Kyiv, Ukraine). Z′ and Z factors were calculated based on Zhang et al..

HSP90 - Sba1/p23 binding = conditions: according to literature; cited from earlier work
HSP90 = conditions: cited from earlier work
[2] = biological target: T3, C. albicans HSP90-mNeonGreen–Sba1-mScarlet-I binding (Candida albicans, UniProt P46598, E36A)
T3 construct: made in house; host or cells: E. coli BL21(DE3)
T3 sequence (P46598 whole entry, stated change not applied): as the sequence (P46598 whole entry) above
Experimental: (§2) In this investigation, 1 µM HSP90-mNeonGreen was incubated with 2 µM Sba1-mScarlet-I in reaction buffer containing 5 mM ATP either alone (UC) or with the addition of 20 µM Sba1. As a negative control, samples containing 20 µM bovine serum albumin (BSA) were used.
as §1
All experiments were carried out in reaction buffer (40 mM HEPES/KOH pH 7.5, 20 mM KCl, 5 mM MgCl2, 20 mM Na2MoO4, Triton-X 100 0.1%). HEPES and KCl were purchased from AppliChem, Darmstadt, Germany. […]

[3] = biological target: T4, human HSP90α-mNeonGreen–p23-mScarlet-I binding (Homo sapiens, UniProt P07900, E47A); test: FRET characterization of model inhibitors and ATP on human HSP90α-p23 binding
T4 construct: made in house; host or cells: E. coli Rosetta2(DE3) pLysS
Experimental: as §2, §1
All experiments were carried out in reaction buffer (40 mM HEPES/KOH pH 7.5, 20 mM KCl, 5 mM MgCl2, 20 mM Na2MoO4, Triton-X 100 0.1%). HEPES and KCl were purchased from AppliChem, Darmstadt, Germany. KOH and MgCl2 were obtained from VWR Chemicals, Darmstadt, Germany. Na2MoO4 was from Merck, Darmstadt, Germany. Triton-X 100 was purchased from Serva, Heidelberg, Germany.
For C. albicans Sba1 competition experiments for HSP90-mNeonGreen–Sba1-mScarlet-I binding, 1 µM HSP90-mNeonGreen and 1 µM Sba1-mScarlet-I were incubated with varying concentrations of Sba1 in a range of 0–25,000 nM (lowest non-zero concentration 12 nM) in reaction buffer containing 5 mM ATP. The experiment was performed twice in nonaplicates. For human p23 competition experiments for HSP90α-mNeonGreen–p23-mScarlet-I binding, 1 µM HSP90α-mNeonGreen and 1 µM p23-mScarlet-I were incubated with varying concentrations of p23 in a range of 0–50 000 nM (lowest non-zero concentration 23 nM) in reaction buffer containing 5 mM ATP. The experiment was performed twice in hexaplicates. […] The experiment was performed thrice in triplicates. […] The IC50,rel values were calculated using the equation log (inhibitor) vs. response-variable slope (four parameters) in GraphPad Prism 5. Ki values for inhibition of HSP90-mNeonGreen–Sba1-mScarlet-I/p23-mScarlet-I binding by non-labeled Sba1/p23 were calculated with One Site—Fit Ki in GraphPad Prism 5. […] The EC50,rel values were calculated using the log (agonist) vs. response-variable slope (four parameters) equation in GraphPad Prism 5.

[4] = biological target: T5, C. albicans HSP90-mNeonGreen (Candida albicans, UniProt P46598); test: Microscale thermophoresis, AMP-PNP binding; conditions: 50 nM HSP90-mNeonGreen, 25 °C, error of the fit; read-out: Kd, binding to C. albicans HSP90-mNeonGreen (MST)
T5 construct: made in house; host or cells: E. coli BL21(DE3)
T5 sequence (P46598 whole entry): as the sequence (P46598 whole entry) above
Experimental: HSP90-mNeonGreen (C. albicans) or mNeonGreen serving as the negative control was adjusted to 100 nM with Sba1 buffer (40 mM HEPES/KOH pH 7.5, 20 mM KCl). The ligand AMP-PNP was dissolved in 2x reaction buffer (40 mM HEPES/KOH pH 7.5, 20 mM KCl, 10 mM MgCl2, 40 mM Na2MoO4, 0.2% Triton-X 100), and a series of 16 1:1 dilutions was prepared using the same buffer, producing ligand concentrations ranging from […] to […]. For the measurement, each ligand dilution was mixed with one volume of HSP90-mNeonGreen or mNeonGreen, which led to a final concentration of 50 nM and final ligand concentrations ranging from 153 nM to […]. After 5 min incubation at room temperature, the samples were loaded into Monolith NT.115 Capillaries (NanoTemper Technologies, Munich, Germany). MST was measured using a Monolith NT.115 at an ambient temperature of 25 °C. Instrument parameters were adjusted to 35% LED power and a high MST power of 80%. Data of three independently pipetted measurements were analyzed (MO.Affinity Analysis software version 2.1.3, NanoTemper Technologies, Munich, Germany) using the signal from an MST-on time of 30 s.

human HSP90β = biological target: human HSP90β; design: method as in earlier work; conditions: 25 °C; ref 37 (McLaughlin et al.); read-out: Kd, binding to human HSP90β; cited from earlier work
human HSP90β–p23 complex = biological target: human HSP90β–p23 complex; design: method as in PMID 16403413; conditions: read-out: Kd, binding to human HSP90β–p23 complex; cited from earlier work

## CC1(C)CC(=O)c2c(C(F)(F)F)nn(-c3ccc(C(N)=O)c(N[C@H]4CC[C@H](OC(=O)CN)CC4)c3)c2C1 [SNX-5422]
[1]
  hit identification (EmFRET/FLDD decrease of more than 3 SDs from binding control mean): reliably identified as disrupting HSP90-Sba1 binding; also recorded: reliably identified as hits
Human HSP90α–p23 binding
  hit identification (EmFRET/FLDD decrease of more than 3 SDs from binding control mean): reliably identified as hits
HSP90 - Sba1/p23 binding
  Influence on p23/Sba1 binding: Yes
HSP90; Table S1, according to literature
  Kd: 0.016 µM

## COc1c(C)cnc(Cn2cnc3c(Cl)nc(N)nc32)c1C [BIIB021]
[1]
  hit identification (EmFRET/FLDD decrease of more than 3 SDs from binding control mean): reliably identified as disrupting HSP90-Sba1 binding; also recorded: reliably identified as hits
HSP90 - Sba1/p23 binding
  Influence on p23/Sba1 binding: Yes
HSP90; Table S1, read-out: Ki (printed in the Kd value column)
  Ki: […]

## Nc1ncnc2c1ncn2[C@@H]1O[C@H](COP(=O)(O)OP(=O)(O)OP(=O)(O)O)[C@@H](O)[C@H]1O [ATP]
[2]; 1 µM HSP90E36A-mNeonGreen, 2 µM Sba1-mScarlet-I
  concentration at which maximum binding was reached: ~ 3 mM
[2]; 1 µM donor, 2 µM acceptor, ATP 0–12,500 µM, read-out: EC50,rel, influence on HSP90E36A-mNeonGreen–Sba1-mScarlet-I binding
  EC50: 220 ± 40 µM
[3]; 1 µM HSP90αE47A-mNeonGreen, 2 µM p23-mScarlet-I
  concentration at which maximum binding was reached: ~ 3 mM
[3]; 1 µM donor, 2 µM acceptor, read-out: EC50,rel, influence on HSP90αE47A-mNeonGreen–p23-mScarlet-I binding
  EC50: 210 ± 30 µM

## Nc1ncnc2c1ncn2[C@@H]1O[C@H](COP(=O)(O)OP(=O)(O)NP(=O)(O)O)[C@@H](O)[C@H]1O [AMP-PNP]
[4]
  Kd: 200 ± 70 µM
Human HSP90β
  Kd: 148 ± 12 µM
Human HSP90β–p23 complex
  Kd: 39 ± 12 µM
